Experimental data taken from paper PMC8844836 (Journal of molecular neuroscience : MN, 2020).
Entries after “also recorded” stand apart in the source; their conditions may differ.

How the values were obtained:
Calu-3 cells = assay: Clonogenic assay, Calu-3 cells; format: cell-based
NSCLC cells = assay: Proliferation of NSCLC cells; format: cell-based
PAC1 (Calu-3 cells) = target: T1, PAC1 (Calu-3 cells) (Homo sapiens, UniProt P41586); assay: cell-based
T1 sequence (P41586 21-468): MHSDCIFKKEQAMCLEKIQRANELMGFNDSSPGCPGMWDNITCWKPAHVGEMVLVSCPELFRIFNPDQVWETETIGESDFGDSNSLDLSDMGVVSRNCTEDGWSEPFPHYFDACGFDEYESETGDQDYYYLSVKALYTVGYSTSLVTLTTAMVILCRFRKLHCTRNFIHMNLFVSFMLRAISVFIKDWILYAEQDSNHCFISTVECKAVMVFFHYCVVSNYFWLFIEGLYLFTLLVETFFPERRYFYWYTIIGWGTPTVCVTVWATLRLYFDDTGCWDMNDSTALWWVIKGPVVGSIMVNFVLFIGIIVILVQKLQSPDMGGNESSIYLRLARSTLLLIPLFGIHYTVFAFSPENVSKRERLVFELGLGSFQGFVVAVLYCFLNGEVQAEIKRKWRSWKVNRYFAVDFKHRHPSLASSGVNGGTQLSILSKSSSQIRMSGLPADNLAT

HER3 [1] = details: NSCLC cells ref Lee et al., 2020; cited from earlier work
HER2 = details: NSCLC cells ref Moody et al., 2019; cited from earlier work
EGFR = details: NSCLC cells ref Moody et al., 2019; cited from earlier work
HER3 [2] = assay: HER3 tyrosine phosphorylation, Western blot, Calu-3 cells; format: cell-based; details: for effect of ROS inhibitors on HER3 transactivation, statistics: Fig. 4B, mean ± S.D. of 3 experiments, relative to PACAP by ANOVA; for effect of ROS inhibitors on PACAP-induced HER3 tyrosine phosphorylation: Western blot (Fig. 4A), 3 experiments
ERK = ERK phosphorylation, Western blot, Calu-3 cells; format: cell-based
HER3 [3] = assay: HER3 tyrosine phosphorylation, NSCLC cells; format: cell-based

With COc1cc2ncnc(Nc3ccc(F)c(Cl)c3)c2cc1OCCCN1CCOCC1 [gefitinib] the “effect on PACAP-27-induced increase in colony number” value (Calu-3 cells; 100 nM PACAP-27) was “impaired”, the “Colony number, + PACAP” value (Calu-3 cells; with 100 nM PACAP-27, PACAP(6–38) 5 μM, gefitinib 1 μM, trastuzumab 0.1 μg/ml, mAb3481 0.1 μg/ml, mean ± S.D. of 3 determinations) was 43 ± 5 and the “proliferation of NSCLC cells” value (NSCLC cells) was “inhibited proliferation”.
CSCC[C@H](NC(=O)[C@H](CCC(N)=O)NC(=O)[C@H](CCCCN)NC(=O)[C@H](CCCNC(=N)N)NC(=O)[C@H](Cc1ccc(O)cc1)NC(=O)[C@H](CCCNC(=N)N)NC(=O)[C@H](CO)NC(=O)[C@H](Cc1ccc(O)cc1)NC(=O)[C@H](CO)NC(=O)[C@H](CC(=O)O)NC(=O)[C@@H](NC(=O)[C@@H](N)Cc1ccccc1)[C@@H](C)O)C(=O)N[C@@H](C)C(=O)N[C@H](C(=O)N[C@@H](CCCCN)C(=O)N[C@@H](CCCCN)C(=O)N[C@@H](Cc1ccc(O)cc1)C(=O)N[C@@H](CC(C)C)C(=O)N[C@@H](C)C(=O)N[C@@H](C)C(=O)N[C@H](C(=O)N[C@@H](CC(C)C)C(=O)NCC(=O)N[C@@H](CCCCN)C(=O)N[C@@H](CCCNC(=N)N)C(=O)N[C@@H](Cc1ccc(O)cc1)C(=O)N[C@@H](CCCCN)C(=O)N[C@@H](CCC(N)=O)C(=O)N[C@@H](CCCNC(=N)N)C(=O)N[C@H](C(=O)N[C@@H](CCCCN)C(=O)N[C@@H](CC(N)=O)C(=O)N[C@@H](CCCCN)C(N)=O)C(C)C)C(C)C)C(C)C [PACAP(6–38)] gave an IC50 (PAC1 (Calu-3 cells)) of 31.4 ± 4.9 nM.
For Bombesin, the HER3 tyrosine phosphorylation (HER3 [1]) is given as “increases HER3 tyrosine phosphorylation”.
In the case of c1ccc2c(c1)[I+]c1ccccc1-2 [DPI, diphenylene iodonium], the “effect on PACAP-induced HER2 tyrosine phosphorylation (ROS inhibitors)” value (HER2) is listed as “inhibited”, the “effect on PACAP-induced EGFR tyrosine phosphorylation (ROS inhibitors)” value (EGFR) is listed as “inhibited” and the “effect of ROS inhibitors on HER3 transactivation, statistics” value (“effect of ROS inhibitors … statistics” below) (HER3 [2]) is listed as “not DPI impaired significantly”. The “effect of ROS inhibitors on PACAP-induced HER3 tyrosine phosphorylation” value (HER3 [2]) was “weakly”.
For O=S(=O)(O)c1cc(O)c(O)c(S(=O)(=O)O)c1 [Tiron], the “effect on PACAP-induced HER2 tyrosine phosphorylation (ROS inhibitors)” value (HER2) is listed as “inhibited”, the “effect on PACAP-induced EGFR tyrosine phosphorylation (ROS inhibitors)” value (EGFR) is listed as “inhibited” and the “effect of ROS inhibitors … statistics” value (HER3 [2]) is listed as “significantly impair”. The “effect of ROS inhibitors … statistics” value (HER3 [2]; listed as Tir) was “impaired significantly” and the “effect of ROS inhibitors on PACAP-induced HER3 tyrosine phosphorylation” value (HER3 [2]) was “strongly inhibited”.
For CC(=O)N[C@@H](CS)C(=O)O [N-acetyl cysteine], the “effect on PACAP-induced HER2 tyrosine phosphorylation (ROS inhibitors)” value (HER2) is given as “inhibited”, the “effect on PACAP-induced EGFR tyrosine phosphorylation (ROS inhibitors)” value (EGFR) is given as “inhibited” and the “effect of ROS inhibitors … statistics” value (HER3 [2]; listed as NAC) is given as “significantly impair; also recorded: impaired significantly”. For the same molecule, the “effect of ROS inhibitors on PACAP-induced HER3 tyrosine phosphorylation” value (HER3 [2]) was “strongly inhibited”.
For neuregulin (NRG)-1 [NRG-1], the “increase in colony number” value (Calu-3 cells; NRG-1 0.1 μg/ml, PACAP-27 100 nM, 2 weeks) was 33%, the “proliferation of NSCLC cells” value (NSCLC cells) was “increased the proliferation” and the “ERK phosphorylation, densitometry statistics, 2, 5, 10 and 30 min” value (ERK; Fig. 2D, NRG-1 1 μg/ml, 2, 5, 10 and 30 min) was “significantly increased”. For the same molecule, the “ERK phosphorylation, 5, 10 and 30 min” value (ERK; PACAP-27 1000 nM or NRG-1 1 μg/ml, 5, 10 and 30 min) was “moderate”, the “ERK phosphorylation, 2 min” value (ERK; PACAP-27 1000 nM or NRG-1 1 μg/ml, 2 min) was “weakly stimulates” and the “HER3 phosphorylation, 5, 10 and 30 min” value (HER3 [2]; Calu-3, PACAP-27 1000 nM or NRG-1 1 μg/ml, 5, 10 and 30 min) was “moderate”. The “HER3 phosphorylation, 2 min” value (HER3 [2]; Calu-3, PACAP-27 1000 nM or NRG-1 1 μg/ml, 2 min) was “weakly stimulates”, the “HER3 phosphorylation, densitometry statistics, 2, 5, 10 and 30 min” value (HER3 [2]; Fig. 2D, NRG-1 1 μg/ml, Calu-3, 2, 5, 10 and 30 min) was “significantly increased” and the “HER3 tyrosine phosphorylation, NSCLC cells” value (HER3 [3]) was “increased HER3 tyrosine phosphorylation”.
